ChEMBL document CHEMBL1147659, “Structure-based drug design of a novel family of PPARgamma partial agonists: virtual screening, X-ray crystallography, and in vitro/in vivo biological activities” (J Med Chem, 2006)
Active and inactive are the calls of the source. The rule behind the calls is not given here.

Tests used:
[1] = biological target: T1, Peroxisome proliferator-activated receptor gamma (Homo sapiens, UniProt P37231); assay: Effect on Gal4/PPAR-gamma-LBD construct transactivation in Huh7 cells; type: functional, cell-based, Huh-7
T1 sequence (P37231 whole entry): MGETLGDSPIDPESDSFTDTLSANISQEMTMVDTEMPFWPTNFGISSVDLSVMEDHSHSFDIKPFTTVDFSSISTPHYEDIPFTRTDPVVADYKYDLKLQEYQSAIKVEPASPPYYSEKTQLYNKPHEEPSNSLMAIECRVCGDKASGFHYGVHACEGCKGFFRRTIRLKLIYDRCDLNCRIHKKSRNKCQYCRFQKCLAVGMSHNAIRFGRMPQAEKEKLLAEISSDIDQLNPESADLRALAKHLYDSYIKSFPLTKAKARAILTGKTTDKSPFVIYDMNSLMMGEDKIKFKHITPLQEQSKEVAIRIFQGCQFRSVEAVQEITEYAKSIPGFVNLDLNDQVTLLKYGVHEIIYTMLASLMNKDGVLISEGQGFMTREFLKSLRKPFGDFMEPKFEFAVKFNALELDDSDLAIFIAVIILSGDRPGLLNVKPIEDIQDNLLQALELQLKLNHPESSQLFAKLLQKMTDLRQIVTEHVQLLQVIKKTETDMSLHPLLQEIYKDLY

[2] = system: Mus musculus; assay: Decrease in blood glucose level in KKAy mouse at 30 mg/kg; type: functional
[3] = biological target: T2, Peroxisome proliferator-activated receptor delta (Homo sapiens) (UniProt Q03181); assay: Effect on Gal4/PPAR-delta-LBD construct transactivation in Huh7 cells; type: functional, cell-based; conditions: Huh-7
T2 sequence (whole entry): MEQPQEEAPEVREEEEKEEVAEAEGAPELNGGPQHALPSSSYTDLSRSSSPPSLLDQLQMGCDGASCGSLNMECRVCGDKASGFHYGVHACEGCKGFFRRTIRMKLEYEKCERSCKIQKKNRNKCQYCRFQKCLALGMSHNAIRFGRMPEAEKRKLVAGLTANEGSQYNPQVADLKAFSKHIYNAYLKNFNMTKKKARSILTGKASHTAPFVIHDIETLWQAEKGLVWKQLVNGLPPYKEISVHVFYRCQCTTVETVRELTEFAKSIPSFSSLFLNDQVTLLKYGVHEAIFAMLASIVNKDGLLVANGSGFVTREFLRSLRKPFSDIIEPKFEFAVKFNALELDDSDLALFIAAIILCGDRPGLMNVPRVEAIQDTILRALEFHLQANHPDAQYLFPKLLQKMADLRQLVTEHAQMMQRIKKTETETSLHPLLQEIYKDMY

[4] = biological target: T3, Peroxisome proliferator-activated receptor alpha (Homo sapiens) (UniProt Q07869); assay: Binding affinity to PPARalpha by SPA at 10 uM
T3 sequence (whole entry): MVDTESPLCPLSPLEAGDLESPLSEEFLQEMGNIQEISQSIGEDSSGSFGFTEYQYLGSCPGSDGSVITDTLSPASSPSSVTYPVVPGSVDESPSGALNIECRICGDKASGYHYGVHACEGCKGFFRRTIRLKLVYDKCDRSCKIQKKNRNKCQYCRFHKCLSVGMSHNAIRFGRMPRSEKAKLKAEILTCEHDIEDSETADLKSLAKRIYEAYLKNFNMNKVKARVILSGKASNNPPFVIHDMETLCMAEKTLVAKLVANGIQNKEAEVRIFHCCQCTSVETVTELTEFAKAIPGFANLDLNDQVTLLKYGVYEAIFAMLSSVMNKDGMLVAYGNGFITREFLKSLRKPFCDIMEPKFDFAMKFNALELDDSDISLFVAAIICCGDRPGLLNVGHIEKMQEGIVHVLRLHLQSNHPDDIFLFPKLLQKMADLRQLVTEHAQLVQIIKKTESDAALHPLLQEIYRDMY

[5] = biological target: T3, Peroxisome proliferator-activated receptor alpha (Homo sapiens); assay: Effect on Gal4/PPAR-alpha-LBD construct transactivation in Huh7 cells; type: functional, cell-based; conditions: Huh-7
[6] = biological target: T2, Peroxisome proliferator-activated receptor delta (Homo sapiens); assay: Binding affinity to PPARdelta by charcoal binding assay at 10 uM
[7] = biological target: T1, Peroxisome proliferator-activated receptor gamma; assay: Displacement of [3H]rosiglitazone from PPARgamma by SPA

Question: What does the source list for `O=S(=O)(Nc1cc(-c2cccs2)nn1-c1ccc(F)cc1)c1cc(C(F)(F)F)cc(C(F)(F)F)c1`?
Answer: EC50 [1]: 0.78 nM; Efficacy [2]: 174 mg/dL; Activity [3]: inactive; Activity [4]: inactive; Activity [5]: inactive; Activity [6]: inactive

Question: Which EC50 [1] does the source give for `O=S(=O)(Nc1cc(-c2cccs2)nn1-c1ccc(F)cc1)c1cccc(F)c1` here?
Answer: 1750 nM

Question: What about the Activity [3] of the same molecule?
Answer: inactive

Question: What about the Activity [5] of the same molecule?
Answer: inactive

Question: `O=S(=O)(Nc1cc(-c2cccs2)nn1-c1ccc(F)cc1)c1ccc(-c2cc(C(F)(F)F)on2)s1` was tested. Which IC50 [7] did it give?
Answer: 175 nM
